Results published in PMC7182277, “Characterizing Emerging Canine H3 Influenza Viruses” (PLoS Pathogens, 2020).
Counter-ions that a name gives are not always drawn.

Assays:
[1] = target: NA of CIV-41915 (Influenza A virus, UniProt A0A0H3YBU9); type: biochemical, canine H3N2 influenza A virus (A/canine/Illinois/41915/2015); settings: read-out: NA enzyme inhibition assay (Mean IC50 ± SD)
[2] = target: NA of rCIV-1177 (Influenza A virus, UniProt A0A2D0WZJ5); type: biochemical; settings: read-out: NA enzyme inhibition assay (Mean IC50 ± SD)
[3] = target: NA of Beth15 (Influenza A virus, UniProt A0A193ACB1); type: biochemical, human H3N2 influenza A virus (A/Bethesda/55/2015); settings: read-out: NA enzyme inhibition assay (Mean IC50 ± SD)
[4] = tested on: CIV-41915; test: microbe, parasite or virus in culture; type: cell-based, canine H3N2 influenza A virus (A/canine/Illinois/41915/2015); settings: Influenza A virus, MDCK, in Canis lupus familiaris, read-out: Phenotypic assay (Mean IC50 ± SD)
[5] = tested on: rCIV-1177; test: microbe, parasite or virus in culture; type: cell-based; settings: Influenza A virus, MDCK, in Canis lupus familiaris, read-out: Phenotypic assay (Mean IC50 ± SD)
[6] = tested on: Beth15; test: microbe, parasite or virus in culture; type: cell-based, human H3N2 influenza A virus (A/Bethesda/55/2015)

Structure (SMILES)	IC50 [1] [nM]	IC50 [2] [nM]	IC50 [3] [nM]	IC50 [4] [nM]	IC50 [5] [nM]	Phenotypic assay (Mean IC50 ± SD) [6]	IC50 ([6]; Influenza A virus, MDCK, read-out: Phenotypic assay (Mean IC50 ± SD)) [nM]
CCC(CC)O[C@@H]1C=C(C(=O)O)C[C@H](N)[C@H]1NC(C)=O [Oseltamivir carboxylate, oseltamivir carboxylate]	0.13 ± 0.01	0.2 ± 0.01					
CCC(CC)[C@H](NC(C)=O)[C@@H]1[C@H](O)[C@@H](C(=O)O)C[C@H]1N=C(N)N [Peramivir, peramivir]	0.15 ± 0.02	0.19 ± 0.02	0.12 ± 0.02				
NC12CC3CC(CC(C3)C1)C2 [Amantadine, amantadine hydrochloride]				600 ± 100	300 ± 100	resistant	> 100000
